Results on 41 compounds are retold here after patent US9115083B2 (Simpson Biotech Co., Ltd, priority 2011, dated 2015).

The experiment deals with HCV NS3/4A protease (Hepatitis C virus genotype 1a (isolate H77) (HCV), UniProt P27958). As to the kind of experiment: HCV protease assay (fluorimetric, FRET substrate). The class given is biochemical. The note with it: HCV NS3/4A protease, 30 min at 37° C., triplicate; read-out: IC50 against HCV protease. From the text: The HCV protease assay herein was applied to investigate the HCV-protease inhibitory activity of the prepared compounds as described above. The method of the HCV protease assay was described in D. T. Phuong, C. M. Ma, M. Hattori and J. S. Jin: Inhibitory Effects of Antrodins A-E from Antrodia cinnamomea and Their Metabolites on Hepatitis C Virus Protease. Phytotherapy Research, 23, 582-584, 2009. Two micro liters of a compound solution (using DMSO as solvent) was placed in 384 well micro plate, then 8 μl of HCV NS3/4A protease ([…]) was added to the well containing a sample and the plate was agitated. Finally, 10 μL of freshly prepared substrate (Ac-Asp-Glu-Dap(QXL™520)-Glu-Glu-Abu-COO-Ala-Ser-Cys(5-FAMsp)-NH2) (100× dilution of a DMSO stock solution) was added with sequential rotational shaking. The reaction mixture was incubated for 30 min at 37° C. The fluorimetric analyses were performed on an automated TECAN GENios plate reader with excitation wavelength at 485 nm and emission 530 nm. Each test compound was carried out in triplicate. The HCV—PR inhibition (%) was calculated by using the following equation: % inhibition=(Fvehicle control−[…])×100/Fvehicle control (Where F is the fluorescence value of vehicle control or of sample minus the fluorescence of the substrate control).
Chain of HCV NS3/4A protease (P27958 1027-1657): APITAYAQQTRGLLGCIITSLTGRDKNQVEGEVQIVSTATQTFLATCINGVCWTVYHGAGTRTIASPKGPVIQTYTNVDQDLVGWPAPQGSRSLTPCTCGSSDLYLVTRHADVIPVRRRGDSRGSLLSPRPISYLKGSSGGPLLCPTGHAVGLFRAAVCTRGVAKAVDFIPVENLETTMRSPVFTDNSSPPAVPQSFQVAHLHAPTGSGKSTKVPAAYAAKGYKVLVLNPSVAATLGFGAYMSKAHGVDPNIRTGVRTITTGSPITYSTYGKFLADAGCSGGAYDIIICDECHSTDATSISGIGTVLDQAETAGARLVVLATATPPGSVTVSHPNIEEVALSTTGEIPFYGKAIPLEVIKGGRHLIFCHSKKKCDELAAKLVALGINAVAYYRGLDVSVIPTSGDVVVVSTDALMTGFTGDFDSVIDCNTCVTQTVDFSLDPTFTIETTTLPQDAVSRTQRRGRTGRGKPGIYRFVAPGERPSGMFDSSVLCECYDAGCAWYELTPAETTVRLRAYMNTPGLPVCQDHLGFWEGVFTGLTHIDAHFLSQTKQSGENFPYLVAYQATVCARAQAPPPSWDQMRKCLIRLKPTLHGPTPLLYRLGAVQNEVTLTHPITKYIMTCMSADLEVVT
Chain of HCV NS3/4A protease (P27958 1658-1711 partner): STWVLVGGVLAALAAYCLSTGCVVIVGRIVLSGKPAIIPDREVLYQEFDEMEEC
What is called IC50 is the concentration that inhibits the measured activity by half. For `CC(C)=CCOc1ccc(C2=C(CC(C)C)C(=O)N(C(C(=O)C(N)=O)c3ccccc3)C2=O)cc1` (centres unmarked) [KCnh-1], the IC50 came out at 1.95 µM.

For the compound `CC(C)=CCOc1ccc(C2=C(CC(C)C)C(=O)N(CCC(=O)C(N)=O)C2=O)cc1` [KBnh-1], the IC50 is 12.1 µM.

In the case of `CSCCC(C(=O)O)N1C(=O)C(CC(C)C)=C(c2ccc(OCC=C(C)C)cc2)C1=O` (centres unmarked) [Compound A5, 2-(3-Isobutyl-4-(4-(3-methylbut-2-enyloxy)phenyl)-2,5-dioxo-2,5-dihydro-1H-pyrrol-1-yl)-4-(methylthio)butanoic acid], the IC50 was 21 µM.

Take `CC(C)CC1C(=O)N(C(Cc2ccccc2)C(=O)O)C(=O)C1c1ccc(O)cc1` (centres unmarked) [Compound A11]: the IC50 was determined as 63 µM.

For `CC(C)=CCOc1ccc(C2=C(CC(C)C)C(=O)N(C(Cc3ccc(O)cc3)C(=O)O)C2=O)cc1` (centres unmarked) [Compound A4, 3-(4-Hydroxyphenyl)-2-(3-isobutyl-4-(4-(3-methylbut-2-enyloxy)-phenyl)-2,5-dioxo-2,5-dihydro-1H-pyrrol-1-yl)propanoic acid], the IC50 was found to be 16 µM.

Regarding `CC(C)CC1C(=O)N(C(CCOCO)C(=O)O)C(=O)C1c1ccc(O)cc1` (centres unmarked) [Compound A17], the IC50 was 105 µM.

Take `CCOC(=O)[C@H](Cc1ccc(O)cc1)NC(=O)C(Cc1ccccc1)N1C(=O)C(CC(C)C)=C(c2ccc(OCC=C(C)C)cc2)C1=O` (some centres unmarked) [Compound A2-3, Ethyl 3-(4-hydroxyphenyl)-2-(2-(3-isobutyl-4-(4-(3-methylbut-2-enyloxy)phenyl)-2,5-dioxo-2,5-dihydro-1H-pyrrol-1-yl)-3-phenylpropanamido)propanoate]: the IC50 stood at 100 µM.

As to `CC(C)CC1C(=O)N(CCC(=O)C(N)=O)C(=O)C1c1ccc(O)cc1` (centres unmarked) [KBnh-2], the IC50 was determined as 7.4 µM.

As to `CC(C)=CCOc1ccc(C2=C(CC(C)C)C(=O)N(CC(=O)C(N)=O)C2=O)cc1` [KAnh-1], the half-inhibitory concentration (IC50) worked out at 153 µM.

In the case of `CC(C)CC1C(=O)N(CC(C(=O)C(=O)NC(Cc2ccccc2)C(=O)O)c2ccccc2)C(=O)C1c1ccc(O)cc1` (centres unmarked) [KC-5], the IC50 amounted to 9 µM.

Turning to `CC(C)CC1C(=O)N(C(CO)C(=O)N[C@@H](Cc2ccccc2)C(=O)O)C(=O)C1c1ccc(O)cc1` (some centres unmarked) [Compound A3-16], the IC50 was determined as 132 µM.

Regarding `CC(C)=CCOc1ccc(C2=C(CC(C)C)C(=O)N(C(C(=O)C(=O)NC(C)C(=O)OC(C)(C)C)c3ccccc3)C2=O)cc1` (centres unmarked) [KC-4-2], the IC50 was determined as 18.3 µM.

As to `CCOC(=O)[C@H](C)NC(=O)C(=O)C(c1ccccc1)N1C(=O)C(CC(C)C)=C(c2ccc(OCC=C(C)C)cc2)C1=O` (some centres unmarked) [KC-2, Ethyl 2-(3-(3-isobutyl-4-(4-(3-methylbut-2-enyloxy)phenyl)-2,5-dioxo-2,5-dihydro-1H-pyrrol-1-yl)-2-oxo-3-phenylpropanamido)propanoate], the IC50 was more than 100 µM.

Regarding `CC(C)CC1C(=O)N(CC(O)C(=O)O)C(=O)C1c1ccc(O)cc1` (centres unmarked) [KA-t], the IC50 worked out at 185 µM.

In the case of `CC(C)=CCOc1ccc(C2=C(CC(C)C)C(=O)N(CCC(=O)C(=O)NC(Cc3ccccc3)C(=O)OC(C)(C)C)C2=O)cc1` (centres unmarked) [KB-2-2], the IC50 amounted to 16.2 µM.

As for `CC(C)CC1C(=O)N(CC(=O)C(=O)NC(C)C(=O)O)C(=O)C1c1ccc(O)cc1` (centres unmarked) [KA-5], the IC50 was 70 µM.

`CC(C)CC1C(=O)N(C(CO)C(=O)O)C(=O)C1c1ccc(O)cc1` (centres unmarked) [Compound A12]: the IC50 was 25 µM.

`CC(C)CC1C(=O)N(C(Cc2ccccc2)C(=O)N[C@@H](Cc2ccccc2)C(=O)O)C(=O)C1c1ccc(O)cc1` (some centres unmarked) [Compound A2-12]: the IC50 was 192 µM.

For `COC(=O)C(NC(=O)C(CC(C)C)N1C(=O)C(CC(C)C)=C(c2ccc(OCC=C(C)C)cc2)C1=O)C(C)C` (centres unmarked) [Compound A1-1, Methyl 2-(2-(3-isobutyl-4-(4-(3-methylbut-2-enyloxy)phenyl)-2,5-dioxo-2,5-dihydro-1H-pyrrol-1-yl)-4-methylpentanamido)-3-methyl-butanoate], the IC50 is more than 100 µM.

Turning to `CC(C)=CCOc1ccc(C2=C(CC(C)C)C(=O)N(C(C(=O)O)C(C)O)C2=O)cc1` (centres unmarked) [Compound A6, 3-Hydroxy-2-(3-isobutyl-4-(4-(3-methylbut-2-enyloxy)phenyl)-2,5-dioxo-2,5-dihydro-1H-pyrrol-1-yl)butanoic acid], the IC50 came to 18 µM.

Turning to `CC(C)CC1C(=O)N(C(C(=O)O)C(C)C)C(=O)C1c1ccc(O)cc1` (centres unmarked) [Compound A15], the IC50 was determined as 85 µM.

For `CC(C)=CCOc1ccc(C2=C(CC(C)C)C(=O)N(CC(O)C(=O)O)C2=O)cc1` (centres unmarked) [KA, 2-Hydroxy-3-(3-isobutyl-4-(4-(3-methylbut-2-enyloxy)phenyl)-2,5-dioxo-2,5-dihydro-1H-pyrrol-1-yl)propanoic acid], the IC50 was 8.7 µM.

On to `CC(C)CC1C(=O)N(CC(C(=O)C(=O)NC(C)C(=O)O)c2ccccc2)C(=O)C1c1ccc(O)cc1` (centres unmarked) [KC-4], for which the IC50 amounted to 14.6 µM.

With `CC(C)CC1C(=O)N(CCC(=O)C(=O)NC(Cc2ccccc2)C(=O)O)C(=O)C1c1ccc(O)cc1` (centres unmarked) [KB-2], the IC50 came out at 100 µM.

As to `CC(C)=CCOc1ccc(C2=C(CC(C)C)C(=O)N(C(CCC(=O)O)C(=O)O)C2=O)cc1` (centres unmarked) [Compound A9, 2-(3-Isobutyl-4-(4-(3-methylbut-2-enyloxy)phenyl)-2,5-dioxo-2,5-dihydro-1H-pyrrol-1-yl)pentanedioic acid], the IC50 was determined as 19 µM.

Take `CCOC(=O)[C@H](Cc1ccccc1)NC(=O)C(=O)C(c1ccccc1)N1C(=O)C(CC(C)C)=C(c2ccc(OCC=C(C)C)cc2)C1=O` (some centres unmarked) [KC-1, Ethyl 2-(3-(3-isobutyl-4-(4-(3-methylbut-2-enyloxy)phenyl)-2,5-dioxo-2,5-dihydro-1H-pyrrol-1-yl)-2-oxo-3-phenylpropanamido)-3-phenylpropanoate]: the IC50 is more than 100 µM.

`CC(C)=CCOc1ccc(C2=C(CC(C)C)C(=O)N(CCC(=O)C(=O)NC(C)C(=O)OC(C)(C)C)C2=O)cc1` (centres unmarked) [KB-1-2]: the IC50 came out at 35.2 µM.

With `CCOC(=O)C(Cc1ccc(O)cc1)NC(=O)C(CC(C)C)N1C(=O)C(CC(C)C)=C(c2ccc(OCC=C(C)C)cc2)C1=O` (centres unmarked) [Compound A1-2, Ethyl 3-(4-hydroxyphenyl)-2-(2-(3-isobutyl-4-(4-(3-methylbut-2-enyloxy)phenyl)-2,5-dioxo-2,5-dihydro-1H-1-yl)-4-methylpentanamido)propanoate], the IC50 was more than 100 µM.

`CC(C)=CCOc1ccc(C2=C(CC(C)C)C(=O)N(C(C(=O)C(=O)NC(Cc3ccccc3)C(=O)OC(C)(C)C)c3ccccc3)C2=O)cc1` (centres unmarked) [KC-5-2]: the IC50 stood at 51.6 µM.

Take `COC(=O)[C@H](CC(C)C)NC(=O)C(Cc1ccccc1)N1C(=O)C(CC(C)C)=C(c2ccc(OCC=C(C)C)cc2)C1=O` (some centres unmarked) [Compound A2-1, Methyl 2-(2-(3-isobutyl-4-(4-(3-methylbut-2-enyloxy)phenyl)-2,5-dioxo-2,5-dihydro-1H-pyrrol-1-yl)-3-phenylpropanamido)-4-methylpentanoate]: the IC50 is more than 100 µM.

`CC(C)CC1C(=O)N(C(Cc2ccccc2)C(=O)N[C@@H](CC(C)C)C(=O)O)C(=O)C1c1ccc(O)cc1` (some centres unmarked) [Compound A2-11]: the IC50 was 120 µM.

On to `CC(C)CC1C(=O)N(C(C)C(=O)O)C(=O)C1c1ccc(O)cc1` (centres unmarked) [Compound A16], for which the IC50 worked out at 170 µM.

On to `CC(C)=CCOc1ccc(C2=C(CC(C)C)C(=O)N(CCC(=O)C(=O)NC3CC3)C2=O)cc1` [KB-1, N-Cyclopropyl-4-(3-isobutyl-4-(4-(3-methylbut-2-enyloxy)phenyl)-2,5-dioxo-2,5-dihydro-1H-pyrrol-1-yl)-2-oxobutanamide], for which the IC50 was 61.9 µM.

Consider `CC(C)CC1C(=O)N(C(CC(C)C)C(=O)N[C@@H](C)C(=O)O)C(=O)C1c1ccc(O)cc1` (some centres unmarked) [Compound A1-10], for which the IC50 turned out to be 16 µM.

For the compound `CC(C)=CCOc1ccc(C2=C(CC(C)C)C(=O)N(C(C)C(=O)O)C2=O)cc1` (centres unmarked) [Compound A8, 2-(3-Isobutyl-4-(4-(3-methylbut-2-enyloxy)phenyl)-2,5-dioxo-2,5-dihydro-1H-pyrrol-1-yl)propanoic acid], the IC50 came to 27 µM.

For `CC(C)CC1C(=O)N(C(C(=O)C(N)=O)c2ccccc2)C(=O)C1c1ccc(O)cc1` (centres unmarked) [KCnh-2], the IC50 came to 1.4 µM.

On to `CCOC(=O)C(Cc1ccccc1)NC(=O)C(Cc1ccccc1)N1C(=O)C(CC(C)C)=C(c2ccc(OCC=C(C)C)cc2)C1=O` (centres unmarked) [Compound A2-2, Ethyl 2-(2-(3-isobutyl-4-(4-(3-methylbut-2-enyloxy)phenyl)-2,5-dioxo-2,5-dihydro-1H-pyrrol-1-yl)-3-phenylpropanamido)-3-phenylpropanoate], for which the IC50 was found to be 100 µM.

As for `CC(C)CC1C(=O)N(C(CC(C)C)C(=O)N[C@@H](Cc2ccccc2)C(=O)O)C(=O)C1c1ccc(O)cc1` (some centres unmarked) [Compound A1-7], the IC50 was 27 µM.

In the case of `COC(=O)C1CCCN1C(=O)C(CC(C)C)N1C(=O)C(CC(C)C)=C(c2ccc(OCC=C(C)C)cc2)C1=O` (centres unmarked) [Compound A1-4], the IC50 was more than 100 µM.

For the compound `CC(C)=CCOc1ccc(C2=C(CC(C)C)C(=O)N(CC(=O)C(=O)NC(C)C(=O)OC(C)(C)C)C2=O)cc1` (centres unmarked) [KA-5-2], the IC50 is 47.6 µM.

Consider `CC(C)=CCOc1ccc(C2=C(CC(C)C)C(=O)N(C(C(=O)O)C(C)C)C2=O)cc1` (centres unmarked) [Compound A7, 2-(3-Isobutyl-4-(4-(3-methylbut-2-enyloxy)phenyl)-2,5-dioxo-2,5-dihydro-1H-pyrrol-1-yl)-3-methylbutanoic acid], for which the IC50 was found to be 23.3 µM.
